Laboratory results as given in patent US20130190399A1, “Synthesis and use of omega-3 and omega 6 very long chain polyunsaturated fatty acids (VLC-PUFA)” (MARTEK BIOSCIENCES CORPORATION, priority 2009, published 2013).

Tests used:
Assay type in all cases: cell-based, rat
[1] = test system: primary hippocampal neurons; experiment: Glutamate neurotoxicity, cell death (propidium iodide) after VLC-PUFA pretreatment; details: for IC50: Rattus norvegicus, Hippocampal neuron, 48 h pretreatment, L-glutamic acid 50 μM 60 min, assayed 24 h later, read-out: half-maximal inhibitory concentration (IC50), inhibition of cell death due to glutamate exposure; for concentrations at which cell death due to glutamate exposure was significantly inhibited: tested 0.1-30 μM, ANOVA/Tukey vs injured vehicle control, p<0.05
Experimental: (§1) Primary hippocampal neurons were harvested from embryonic day 17-18 rat fetuses using a modified version of previously described protocols (Banker and Cowan, 1977; Brewer et al., 1993) that preferentially select for neuronal growth over glial growth (Brewer, 1997). Pregnant dams were anesthetized via isoflurane on gestational day 18, and the rat fetuses were harvested by Cesarean section. Brains were removed and placed in ice-cold (4° C.) Hibernate EB (Brain Bits, Inc., Springfield, Il, USA) until all of the hippocampi were dissected. During the dissection, brain tissue was kept on an ice-cold block in Hibernate E solution. Dissected hippocampal tissue was washed once in room-temperature Hibernate E (without calcium, Brain Bits, Inc.) to remove divalent cations, and then incubated at 37° C. in a solution consisting of 0.17% trypsin in Hybernate E (without calcium) for 10 minutes. The tissue was subsequently washed once with ice-cold Hybernate E (without calcium) containing 15% fetal bovine serum (Atlas Biologicals, Fort Collins, Colo., USA) and then dissociated by trituration in the same media. Dispersed cell suspensions were centrifuged for 2 minutes at 200 g at 4° C., and resuspended in ice-cold Neurobasal medium (Invitrogen, Carlsbad, Calif., USA) supplemented with 1×B27 (Invitrogen), 100 μg/ml penicillin-streptomycin (Invitrogen), 0.5 mM L-glutamine (Invitrogen) and 0.025 mM L-glutamate (Sigma, St. Louis, Mo., USA). Viable cell number and concentration were determined by trypan blue exclusion and counted using an automated cell counter (Countess, Invitrogen). Cell suspensions were diluted in warm Neurobasal/B27 media and plated at a density of 30,000 cells per well in 96-well plates (Falcon Optilux plates, BD Biosciences, Bedford, Mass., USA) coated with laminin (Sigma) and poly-D-lysine (Sigma). Cultures were maintained in a temperature- (37° C.), humidity- (−100%), and gas- (5% CO2, 9% O2) controlled incubator. Half of the media was removed and replaced with fresh media every other day. All cultures were maintained for 3 days in vitro (DIV) in glutamate-containing media and then maintained an additional 7 DIV (glutamate neurotoxicity experiments) or 8 DIV (hypoxia) in Neurobasal/B27 media without glutamate.
(§2) Very long-chain polyunsaturated fatty acids (VLCPUFAs; 34:6n3, 34:5n3, 28:6n3, 28:5n3, and 28:4n6) were obtained as the free fatty acid and were stored at −20° C. until use. Each VLC-PUFA was dissolved in methanol to an initial concentration of 100 mM and then diluted serially in methanol to obtain 1000× stocks for each concentration tested. These were diluted further in media to obtain the appropriate concentration within the culture wells (final concentrations of 30 μM, 10 μM, 3 μM, 1 μM, 0.3 μM, and 0.1 μM). Controls received methanol similarly diluted in media (final concentration 0.1%). The VLC-PUFAs were added to the cultures 48 hours prior to glutamate insult or hypoxia exposure (described below), and a 50% media change occurred immediately prior to hypoxia exposure or immediately following glutamate exposure.
Cultures were treated with L-glutamic acid (50 μM, pH 7.0) for 60 minutes followed by a complete media change containing the appropriate concentrations of VLC-PUFAs. Cells were assayed for viability and mitochondrial health 24 hours after the glutamate treatment. […]

[2] = test system: primary hippocampal neurons; experiment: Hypoxia, cell death (propidium iodide) after VLC-PUFA pretreatment; details: 48 h hypoxia, O2 ≦0.3%, tested 0.1-30 μM
Experimental: as §1, with “All cultures were maintained for 3 days in vitro (DIV) in glutamate-containing media and then maintained an additional 7 DIV (glutamate neurotoxicity experiments) or 8 DIV (hypoxia) in Neurobasal/B27 media without glutamate.” left out

[3] = test system: primary hippocampal neurons; experiment: Mitochondrial health (TMRE) after glutamate-induced neurotoxicity; details: for EC50: Rattus norvegicus, Hippocampal neuron, 48 h pretreatment, L-glutamic acid 50 μM 60 min, assayed 24 h later, read-out: half-maximal effective concentration (EC50), increase of mitochondrial health after glutamate; for concentrations at which mitochondrial health after glutamate was significantly increased: tested 0.1-30 μM, ANOVA/Tukey vs injured vehicle control
Experimental: as §1, §2
Cultures were treated with L-glutamic acid (50 μM, pH 7.0) for 60 minutes followed by a complete media change containing the appropriate concentrations of VLC-PUFAs. Cells were assayed for viability and mitochondrial health 24 hours after the glutamate treatment.
Following glutamate exposure or hypoxia, cultures were aspirated with a 96-well plate washer (BioTek, Winooski, Vt., USA) and incubated for 15 minutes at 37° C. with phenol-free Neurobasal media (Invitrogen) containing one of two dye mixtures: 1) Hoechst dye (1:2000 of a 10 μg/ml solution, Invitrogen) and propidium iodide (PI; 1:500 of a 1 μg/ml solution; Invitrogen), or 2) Hoechst dye and tetramethylrhodamine ethyl ester (TMRE; 100 nM; Invitrogen). These dyes identify total cells (Hoechst), dying or dead cells (PI), and functional mitochondria (TMRE). […]

[4] = test system: primary hippocampal neurons; experiment: Mitochondrial health (TMRE) after hypoxia; details: 48 h hypoxia, O2 ≦0.3%; tested 0.1-30 μM
Experimental: Primary hippocampal neurons were harvested from embryonic day 17-18 rat fetuses using a modified version of previously described protocols (Banker and Cowan, 1977; Brewer et al., 1993) that preferentially select for neuronal growth over glial growth (Brewer, 1997). Pregnant dams were anesthetized via isoflurane on gestational day 18, and the rat fetuses were harvested by Cesarean section. Brains were removed and placed in ice-cold (4° C.) Hibernate EB (Brain Bits, Inc., Springfield, Il, USA) until all of the hippocampi were dissected. During the dissection, brain tissue was kept on an ice-cold block in Hibernate E solution. Dissected hippocampal tissue was washed once in room-temperature Hibernate E (without calcium, Brain Bits, Inc.) to remove divalent cations, and then incubated at 37° C. in a solution consisting of 0.17% trypsin in Hybernate E (without calcium) for 10 minutes. The tissue was subsequently washed once with ice-cold Hybernate E (without calcium) containing 15% fetal bovine serum (Atlas Biologicals, Fort Collins, Colo., USA) and then dissociated by trituration in the same media. […] Viable cell number and concentration were determined by trypan blue exclusion and counted using an automated cell counter (Countess, Invitrogen). […]

| Compound | IC50 [1] [nM] | effect on hypoxia-induced cell death (in words) [2] | EC50 [3] [nM] | concentrations at which mitochondrial health after glutamate was significantly increased [3] [µM] | concentrations at which cell death due to glutamate exposure was significantly inhibited [1] [µM] | concentrations at which cell death due to hypoxia was significantly inhibited ([2]; 48 h pretreatment) [µM] | effect on mitochondrial health after hypoxia (in words) [4] |
| --- | --- | --- | --- | --- | --- | --- | --- |
| CC/C=C\C/C=C\C/C=C\C/C=C\C/C=C\CCCCCCCCCCCCCCCCCC(=O)O [34:5n3] | 690 | exhibited a main effect of treatment, but only one concentration (0.3 μM) approached a significant difference when compared to controls | 680 | 3.0 | – | – | – |
| CC/C=C\C/C=C\C/C=C\C/C=C\C/C=C\C/C=C\CCCCCCCCC(=O)O [28:6n3] | 210 | did not inhibit hypoxia-induced cell death at any concentration tested | 170 | ≥ 3.0 | ≥ 0.3 | – | – |
| CC/C=C\C/C=C\C/C=C\C/C=C\C/C=C\C/C=C\CCCCCCCCCCCCCCC(=O)O [34:6n3] | 1070 | – | 250 | ≥ 0.3 | ≥ 3.0 | 1.0 | did not significantly alter mitochondrial health at the concentrations tested |
